Laboratory results: US11555012B2 (Nimbus Artemis, Inc., priority 2018, dated 2023)
Like-named read-outs stand apart in the source and are kept apart here.

Tests used:
ACC1 = ACC1 isolated from rat, mouse, monkey and human; cited from earlier work
ACC2 = ACC2 isolated from rat, mouse, monkey and human; cited from earlier work
pyruvate carboxylase = pyruvate carboxylase (Homo sapiens (Human), UniProt P11498); conditions: cited from earlier work
[1] = biological target: propionyl-CoA carboxylase (Homo sapiens (Human), UniProt P05165+P05166); conditions: cited from earlier work
HepG2 cells [2] = test: ACLY HepG2 14C-Pyruvate incorporation assay with serum (IC50 Cholesterol); assay type: cell-based; conditions: Homo sapiens, table title: with serum, column head: serum free, 96 well
Excerpt: The protocol below was followed:
(§1) 5. […] 6. […] 7. […] 8. […] 9. Repeat the Step 8 10.

HepG2 cells [3] = test: ACLY HepG2 14C-Pyruvate incorporation assay with serum (IC50 Fatty Acid); assay type: cell-based; conditions: Homo sapiens, table title: with serum, column head: serum free, 96 well, read-out: ACLY HepG2 14C-Pyruvate Assay serum free IC50 FA 96 well (IC50)
Excerpt: Example 333. ACLY HepG2 ^14C-Pyruvate Incorporation Assay (IC50 Fatty Acid)
as §1

[4] = biological target: ACLY enzyme, from S100 fraction of rat livers (Rattus norvegicus (Rat), UniProt P16638); test: rACLY S100 14C-Citrate incorporation assay (IC50 Fatty Acid synthesis); assay type: biochemical; conditions: rat liver S100 fraction; fatty acid labeling from 14C-citrate; read-out: rACLY S100 14C-Citrate FA IC50
Excerpt: Example 336. rACLY S100 ^14C-Citrate Incorporation Assay (IC50 Fatty Acid Synthesis)
Cell-free preparations of liver can synthesize long-chain fatty acids through a pathway which includes the formation of malonyl co-enzyme A (CoA) from acetyl CoA and CO2. The ACLY enzyme, from S100 fraction of rat livers, can transfer CoA, ATP and Citrate to acetyl-CoA, which is the precursor of fatty acid synthesis. Addition of ^14C-citrate to the S100 fraction enables fatty acid labeling from the ACLY reaction, and thus, the effect of ACLY inhibition can be measured in these preparations.
S100 fractions from rat livers were prepared in order to study the effect of ACLY inhibition on fatty acid synthesis using ^14C-citrate as the radiolabel. Fresh livers were excised and quickly homogenized using a 15 ml dounce homogenizer (D9188-1SET from Sigma) in 1 volume of assay buffer containing 0.25 M sucrose, 1 mM potassium citrate, and protease inhibitor cocktail. Homogenates were centrifuged at 20,000×g for 20 min at 4° C. The supernatant was centrifuged at 100,000×g for 2 hours at 4° C. This fraction is S100. For compound addition, 17.5 μL of compound at the desired concentration was added to 350 μL of S100 fraction solution (derived from 0.5 g fresh liver) in 15 mL centrifuge tubes and exposed to air at 37° C. for 30 min. Radiolabeled [^14C]-citrate (60 μL, 3 μCi) was added per tube, plus 40 μL reaction buffer and 3032.5 μL substrate buffer (diluted with reaction buffer, final conc.: 1 mM ATP, 60 μM CoA, 100 μM non-radiolabeled citrate, 0.5% DMSO). Total reaction volume equaled 3.5 mL and was mixed at 37° C. for 2 hours. At the end of the reaction, each sample was saponified at 70° C. for 120 minutes in 1.5 mL of 2.5M NaOH, then cooled to room temperature. Ethanol (2.5 mL) was added to the tubes, and the solution was mixed and allowed to stand overnight. […] Next, samples were acidified in 15 mL tubes directly with 0.6 mL concentrated HCl, to ensure pH<1. Fatty acids were extracted by adding 5 mL of petroleum ether per tube, the tubes were shaken vigorously, then centrifuged at 1000 rpm for 5 min. […]

ACL [5] = biological target: T1, ACL (Homo sapiens (Human), UniProt P53396); test: ADP-Glo Assay
Target sequence in this assay (P53396 other isoform, or with tags, fused parts or gaps isoform P53396-2): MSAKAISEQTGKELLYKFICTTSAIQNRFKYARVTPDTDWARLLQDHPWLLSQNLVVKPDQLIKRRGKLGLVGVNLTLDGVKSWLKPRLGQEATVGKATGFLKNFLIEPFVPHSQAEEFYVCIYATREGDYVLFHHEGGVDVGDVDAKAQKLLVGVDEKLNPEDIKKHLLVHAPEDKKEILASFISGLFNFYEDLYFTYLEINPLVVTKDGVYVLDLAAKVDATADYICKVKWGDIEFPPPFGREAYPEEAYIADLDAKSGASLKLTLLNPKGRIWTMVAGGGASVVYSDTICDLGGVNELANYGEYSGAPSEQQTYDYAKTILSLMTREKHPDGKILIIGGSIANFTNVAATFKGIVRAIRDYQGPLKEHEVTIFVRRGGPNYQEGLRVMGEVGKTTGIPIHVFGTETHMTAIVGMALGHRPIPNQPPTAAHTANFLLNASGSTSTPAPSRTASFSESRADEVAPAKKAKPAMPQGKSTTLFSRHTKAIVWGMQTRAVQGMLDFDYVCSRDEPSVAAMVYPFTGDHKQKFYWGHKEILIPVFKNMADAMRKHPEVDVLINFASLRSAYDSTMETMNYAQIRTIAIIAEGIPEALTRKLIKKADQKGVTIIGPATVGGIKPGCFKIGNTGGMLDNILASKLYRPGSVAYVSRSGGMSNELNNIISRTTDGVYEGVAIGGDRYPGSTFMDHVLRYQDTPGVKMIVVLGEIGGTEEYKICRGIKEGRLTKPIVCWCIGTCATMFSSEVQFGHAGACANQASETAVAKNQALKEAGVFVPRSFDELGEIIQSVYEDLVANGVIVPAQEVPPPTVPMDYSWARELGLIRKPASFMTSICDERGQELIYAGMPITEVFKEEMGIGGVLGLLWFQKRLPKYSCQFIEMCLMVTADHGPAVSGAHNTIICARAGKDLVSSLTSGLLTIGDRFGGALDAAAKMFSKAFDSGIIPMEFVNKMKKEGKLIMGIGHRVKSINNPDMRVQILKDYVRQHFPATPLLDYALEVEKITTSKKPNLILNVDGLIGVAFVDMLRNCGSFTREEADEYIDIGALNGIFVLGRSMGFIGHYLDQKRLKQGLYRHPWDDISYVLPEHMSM

ACL [6] = biological target: T1, ACL; test: ACLY-MDH Coupled Assay
Target sequence in this assay (P53396 whole entry, species assumed): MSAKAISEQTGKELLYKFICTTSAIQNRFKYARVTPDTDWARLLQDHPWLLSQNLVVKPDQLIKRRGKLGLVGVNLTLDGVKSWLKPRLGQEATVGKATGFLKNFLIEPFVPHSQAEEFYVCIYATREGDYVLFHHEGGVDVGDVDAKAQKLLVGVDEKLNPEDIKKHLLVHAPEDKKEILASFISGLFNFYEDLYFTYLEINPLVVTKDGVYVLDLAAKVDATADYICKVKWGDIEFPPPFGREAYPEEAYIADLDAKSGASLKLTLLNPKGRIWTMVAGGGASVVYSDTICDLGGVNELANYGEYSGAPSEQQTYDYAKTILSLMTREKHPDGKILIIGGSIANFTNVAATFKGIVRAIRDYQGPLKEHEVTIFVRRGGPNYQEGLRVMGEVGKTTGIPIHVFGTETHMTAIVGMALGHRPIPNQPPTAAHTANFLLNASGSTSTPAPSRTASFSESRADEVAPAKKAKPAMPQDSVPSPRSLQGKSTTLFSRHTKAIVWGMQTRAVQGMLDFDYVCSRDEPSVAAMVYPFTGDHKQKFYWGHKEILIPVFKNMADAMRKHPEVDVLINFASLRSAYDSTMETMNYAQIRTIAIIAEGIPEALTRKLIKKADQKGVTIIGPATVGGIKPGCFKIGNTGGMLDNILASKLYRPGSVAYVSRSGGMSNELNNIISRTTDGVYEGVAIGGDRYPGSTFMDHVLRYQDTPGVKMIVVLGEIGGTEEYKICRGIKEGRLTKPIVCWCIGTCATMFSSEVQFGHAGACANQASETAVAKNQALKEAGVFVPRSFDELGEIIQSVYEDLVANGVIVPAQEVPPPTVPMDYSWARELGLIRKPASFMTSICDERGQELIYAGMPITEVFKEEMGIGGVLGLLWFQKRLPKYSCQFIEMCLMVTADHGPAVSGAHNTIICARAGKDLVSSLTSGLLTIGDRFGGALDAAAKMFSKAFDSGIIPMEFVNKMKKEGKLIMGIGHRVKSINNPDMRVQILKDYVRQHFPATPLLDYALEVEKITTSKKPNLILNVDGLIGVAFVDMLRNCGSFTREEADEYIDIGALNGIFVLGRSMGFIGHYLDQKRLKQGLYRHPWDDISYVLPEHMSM
Protocol: Compounds of the present invention were evaluated in an ACLY Coupled Assay.
The assay protocol for the Coupled Assay (below) was followed:
b) Add 1 μL cpds to 96 assay plate, Test cpd conc: 100/30/10 μM top dose, 3 folds dilution, 10+0+control (control: buffer without ACL+DMSO) points, 1000 rpm for 1 min, incubation at 25° C. for 60 min

HepG2 cells [7] = conditions: Homo sapiens, HepG2, read-out: ACLY HepG2 14C-Pyruvate Assay serum free IC50 FA (IC50) [μM]
Protocol: ACLY HepG2 ^14C-Pyruvate Incorporation Serum-Free Assay (IC50 Fatty
The protocol of the assay (below) was followed:
(§2) After 48 hours, change medium with fresh growth medium.
(§3) After 18 hours, replaced medium using 0.5 mL fresh medium (5.5 mM Glucose, without FBS, 1% PS, without Pyruvate) containing Compounds or 0.5% DMSO, incubated at 37° C., 5% CO2 for 1 hour.
(§4) Add 3 μci of [14C]-pyruvate per well to the cell samples were incubated at 37° C., 5% CO2 for 5 hours.
Medium was removed and placed into a 15 mL centrifuge tube. Add 0.5 mL of 0.1M NaOH to each well and then transfer the cell lysates into the corresponding 15 mL centrifuge tubes. 1.0 mL of EtOH and 0.17 mL 50% KOH were added to 15 mL tubes containing medium and cell suspensions, then shaking tube gently. […] Saponification 15 mL tubes containing medium and cell suspensions were incubated at 90° C. for 1 hour, then cooled to room temperature. […] Cholesterol Extraction 5 mL of petroleum ether was added per tube to extract Cholesterol, shaken vigorously, centrifuged at 1000 rpm for 5 min, and ˜5 mL of the petroleum ether layer was transferred to a new glass tube (18*180 mm). […] Acidification The samples in 15 mL tube were acidified directly with 1 mL concentrated HCl, make sure pH was below 1. […] Fatty Acids Extraction 5 mL of petroleum ether was added per tube, shaken vigorously, centrifuged at 1000 rpm for 5 min, 5 mL of the petroleum ether layer was transferred to the corresponding glass tube. […] Repeat the Step 8 10. Count The petroleum ether extracts were pooled and evaporated to dryness overnight. The residue from the petroleum ether fractions were resuspended in 500 μL of chloroform-hexane (1:1) containing 420 μg of linoleic acid as a carrier. Add 200 μL of resuspending (chloroform-hexane (1:1) containing 168 μg of linoleic acid) to 2 mL Ultima Gold™, after 30 min, count on a scintillation counter.

HepG2 cells [8] = conditions: Homo sapiens, HepG2, read-out: ACLY HepG2 14C-Pyruvate Assay serum free IC50 Cholesterol (IC50) [μM]
Protocol: ACLY HepG2 ^14C-Pyruvate Incorporation Serum-Free Assay (IC50 Cholesterol and Fatty Acid Synthesis)
Compounds of the present invention were evaluated in a HepG2 ^14C-pyruvate incorporation assay. The protocol below was followed:
as §2, §3, §4
Medium was removed and placed into a 15 mL centrifuge tube. Add 0.5 mL of 0.1M NaOH to each well and then transfer the cell lysates into the corresponding 15 mL centrifuge tubes. 1.0 mL of EtOH and 0.17 mL 50% KOH were added to 15 mL tubes containing medium and cell suspensions, then shaking tube gently. […] Saponification 15 mL tubes containing medium and cell suspensions were incubated at 90° C. for 1 hour, then cooled to room temperature. […] Cholesterol Extraction 5 mL of petroleum ether was added per tube to extract Cholesterol, shaken vigorously, centrifuged at 1000 rpm for 5 min, and ˜5 mL of the petroleum ether layer was transferred to a new glass tube (18*180 mm). […] Acidification The samples in 15 mL tube were acidified directly with 1 mL concentrated HCl, make sure pH was below 1. […] Fatty Acids Extraction 5 mL of petroleum ether was added per tube, shaken vigorously, centrifuged at 1000 rpm for 5 min, 5 mL of the petroleum ether layer was transferred to the corresponding glass tube. […] Count The petroleum ether extracts were pooled and evaporated to dryness overnight. The residue from the petroleum ether fractions were resuspended in 500 μL of chloroform-hexane (1:1) containing 420 μg of linoleic acid as a carrier. Add 200 μL of resuspending (chloroform-hexane (1:1) containing 168 μg of linoleic acid) to 2 mL Ultima Gold™, after 30 min, count on a scintillation counter.

[9] = read-out: ACL-ADP-Glo (IC50), 3 nM ACL, 15 μM ATP, 3 μM CoA, 300 μM Citrate
[10] = read-out: ACL-MDH Coupled Assay (IC50), 8 nM ACL, 60 μM CoA Na2, 85 μM Citrate, 250 μM ATP, 250 μM NADH

Chain of ACLY enzyme, from S100 fraction of rat livers (P16638 whole entry): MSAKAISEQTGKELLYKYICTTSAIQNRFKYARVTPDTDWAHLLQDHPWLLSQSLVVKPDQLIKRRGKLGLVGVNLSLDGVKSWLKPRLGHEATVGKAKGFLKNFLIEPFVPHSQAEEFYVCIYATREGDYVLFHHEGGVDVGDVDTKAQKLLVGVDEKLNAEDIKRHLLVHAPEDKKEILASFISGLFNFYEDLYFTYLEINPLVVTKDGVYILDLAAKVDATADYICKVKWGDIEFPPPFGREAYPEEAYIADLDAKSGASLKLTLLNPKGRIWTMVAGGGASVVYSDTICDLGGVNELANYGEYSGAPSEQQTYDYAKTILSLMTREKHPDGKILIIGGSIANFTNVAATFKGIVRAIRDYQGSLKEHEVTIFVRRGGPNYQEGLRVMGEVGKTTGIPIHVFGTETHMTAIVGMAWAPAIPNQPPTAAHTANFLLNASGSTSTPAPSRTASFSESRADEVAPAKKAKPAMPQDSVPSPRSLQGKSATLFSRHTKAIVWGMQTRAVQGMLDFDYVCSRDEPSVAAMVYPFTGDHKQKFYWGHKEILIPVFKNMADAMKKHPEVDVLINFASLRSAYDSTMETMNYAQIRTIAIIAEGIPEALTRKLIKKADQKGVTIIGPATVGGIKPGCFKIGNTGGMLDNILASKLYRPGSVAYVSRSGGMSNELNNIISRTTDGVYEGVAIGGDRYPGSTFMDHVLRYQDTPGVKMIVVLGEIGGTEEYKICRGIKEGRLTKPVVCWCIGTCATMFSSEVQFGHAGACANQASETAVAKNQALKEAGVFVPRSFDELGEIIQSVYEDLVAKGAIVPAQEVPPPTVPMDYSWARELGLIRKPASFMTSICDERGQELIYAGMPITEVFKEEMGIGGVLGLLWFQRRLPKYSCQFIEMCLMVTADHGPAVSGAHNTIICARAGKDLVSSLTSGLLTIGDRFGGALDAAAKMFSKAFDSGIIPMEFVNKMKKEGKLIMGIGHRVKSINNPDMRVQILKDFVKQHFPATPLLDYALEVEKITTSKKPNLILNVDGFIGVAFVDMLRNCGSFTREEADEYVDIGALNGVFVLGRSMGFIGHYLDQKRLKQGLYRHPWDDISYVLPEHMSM
Chain of propionyl-CoA carboxylase (P05165 53-728): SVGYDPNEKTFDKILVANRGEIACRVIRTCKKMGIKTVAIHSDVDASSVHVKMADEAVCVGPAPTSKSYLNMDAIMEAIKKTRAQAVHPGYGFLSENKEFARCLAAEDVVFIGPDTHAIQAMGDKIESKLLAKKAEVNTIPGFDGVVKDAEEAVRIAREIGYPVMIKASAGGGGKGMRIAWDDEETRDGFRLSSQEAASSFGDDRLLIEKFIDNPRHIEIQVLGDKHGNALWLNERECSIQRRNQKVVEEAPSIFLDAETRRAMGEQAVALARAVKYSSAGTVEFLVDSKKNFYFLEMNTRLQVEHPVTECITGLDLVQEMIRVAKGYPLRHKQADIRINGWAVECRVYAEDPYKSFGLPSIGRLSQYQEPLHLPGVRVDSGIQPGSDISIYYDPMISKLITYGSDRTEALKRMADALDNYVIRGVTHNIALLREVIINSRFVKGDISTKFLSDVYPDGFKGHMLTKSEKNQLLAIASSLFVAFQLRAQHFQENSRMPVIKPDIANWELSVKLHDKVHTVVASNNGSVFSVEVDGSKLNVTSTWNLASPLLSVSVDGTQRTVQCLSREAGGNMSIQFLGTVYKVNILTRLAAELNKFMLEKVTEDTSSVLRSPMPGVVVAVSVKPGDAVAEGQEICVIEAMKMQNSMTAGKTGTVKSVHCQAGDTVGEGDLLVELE
Chain of propionyl-CoA carboxylase (P05166 29-539): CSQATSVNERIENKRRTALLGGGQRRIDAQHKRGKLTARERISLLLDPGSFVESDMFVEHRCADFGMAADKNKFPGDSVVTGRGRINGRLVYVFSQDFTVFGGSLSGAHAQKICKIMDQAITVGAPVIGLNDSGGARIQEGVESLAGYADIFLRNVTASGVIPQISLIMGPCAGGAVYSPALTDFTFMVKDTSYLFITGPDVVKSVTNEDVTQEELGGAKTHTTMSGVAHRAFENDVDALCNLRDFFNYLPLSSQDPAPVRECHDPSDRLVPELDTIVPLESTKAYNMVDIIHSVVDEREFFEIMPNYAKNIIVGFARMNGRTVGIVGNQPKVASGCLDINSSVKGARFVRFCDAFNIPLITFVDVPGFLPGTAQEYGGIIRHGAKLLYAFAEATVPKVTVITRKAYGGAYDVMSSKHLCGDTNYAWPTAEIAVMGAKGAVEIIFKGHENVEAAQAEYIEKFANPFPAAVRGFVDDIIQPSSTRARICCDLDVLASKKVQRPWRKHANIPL

SMILES	IC50 (ACC1) [nM]	IC50 (ACC2) [nM]	inhibition of pyruvate carboxylase (pyruvate carboxylase)	inhibition of propionyl-CoA carboxylase [1]	IC50 (HepG2 cells [2]) [nM]	IC50 (HepG2 cells [3]) [nM]	IC50 [4] [nM]	IC50 (ACL [5]) [nM]	IC50 (ACL [6]) [nM]	IC50 (HepG2 cells [7]) [µM]	IC50 (HepG2 cells [8]) [µM]	IC50 (ACL [5]; [9]) [nM]	IC50 (ACL [6]; [10]) [nM]
O=C(c1c2ccccc2cc2ccccc12)N1CCC(N2CCC[C@@H](C(=O)N3CCOCC3)C2)CC1 [CP-640186]	~60	~60	without inhibiting	without inhibiting									
O=S(=O)(Nc1cc(-c2ccccc2)ccc1F)c1cc(Cl)cc(Cl)c1O [I-22, 3,5-dichloro-N-(2-fluoro-5-phenylphenyl)-2-hydroxybenzene-1-sulfonamide]					< 1000	1000 to 5000	1000 to 5000	50 to 500	< 50	1 to 10	< 1		
CCOC(=O)c1cc(Cl)c(O)c(S(=O)(=O)Nc2cc(-c3ccccc3)c(F)cc2F)c1 [I-84, ethyl 3-chloro-5-[(2,4-difluoro-5-phenylphenyl)sulfamoyl]-4-hydroxybenzoate]					< 1000	1000 to 5000				1 to 10	< 1	< 50	< 50
O=S(=O)(Nc1cc(-c2ccccc2)c(F)cc1F)c1cc(-c2cncs2)cc(Cl)c1O [I-123, 3-chloro-N-(4,6-difluoro-[1,1′-biphenyl]-3-yl)-2-hydroxy-5-(thiazol-5-yl)benzenesulfonamide]					< 1000	1000 to 5000				1 to 10	< 1	< 50	< 50
Cc1cc(Cl)c(O)c(S(=O)(=O)Nc2cc(-c3ccccc3)c(F)cc2F)c1 [I-157, 3-chloro-N-(4,6-difluoro-[1,1′-biphenyl]-3-yl)-2-hydroxy-5-methylbenzenesulfonamide]					1000 to 5000	5000 to 20000		50 to 500	50 to 500	1 to 10	1 to 5		
O=C(O)c1ccc(-c2ccccc2)cc1NS(=O)(=O)c1cc(Cl)cc(C(F)(F)F)c1 [I-220, 3-((3-chloro-5-(trifluoromethyl)phenyl)sulfonamido)-[1,1′-biphenyl]-4-carboxylic acid]					1000 to 5000	1000 to 5000		50 to 500	50 to 500	1 to 10	1 to 5		
O=C(O)c1ccc(-c2cccs2)cc1NS(=O)(=O)c1cc(Cl)cc(Cl)c1 [I-275, 2-((3,5-dichlorophenyl)sulfonamido)-4-(thiophen-2-yl)benzoic acid]								50 to 500	50 to 500	1 to 10	1 to 5		
COc1c(Cl)cc(Cl)cc1S(=O)(=O)Nc1cc(-c2ccccc2)ccc1C(=O)O [I-281, 3-((3,5-dichloro-2-methoxyphenyl)sulfonamido)-[1,1′-biphenyl]-4-carboxylic Acid]								50 to 500	50 to 500	1 to 10	1 to 5		
COc1cc(F)c(-c2cc3ccccc3s2)cc1NS(=O)(=O)c1cc(C(=O)N2CCC2)cc(Cl)c1O [I-286]							1000 to 5000			1 to 10	1 to 5	< 50	< 50
O=C(O)c1cc(F)c(-c2ccccc2)cc1NS(=O)(=O)c1cc(Cl)cc(Cl)c1 [I-287, 5-((3,5-dichlorophenyl)sulfonamido)-2-fluoro-[1,1′-biphenyl]-4-carboxylic Acid]								50 to 500	50 to 500	1 to 10	1 to 5		
COc1c(Cl)cc(C(F)(F)F)cc1S(=O)(=O)Nc1cc(-c2ccccc2)ccc1C(=O)O [I-296, 3-((3-chloro-2-methoxy-5-(trifluoromethyl)phenyl)sulfonamido)-[1,1′-biphenyl]-4-carboxylic Acid]								50 to 500	50 to 500	1 to 10	1 to 5		
O=c1[nH]cc(Cl)cc1S(=O)(=O)Nc1cc(-c2ccccc2)c(F)cc1F [I-298, 5-chloro-N-[4,6-difluoro-[1,1-biphenyl]-3-yl]-2-oxo-1,2-dihydropyridine-3-sulfonamide]								50 to 500	50 to 500	> 10	5 to 20		
O=C(Nc1cc(-c2ccccc2)c(F)cc1C(=O)O)c1cc(Cl)cc(Cl)c1 [I-318, 5-(3,5-dichlorobenzamido)-2-fluoro-[1,1′-biphenyl]-4-carboxylic Acid]							5000 to 20000	500 to 20000	500 to 30000	1 to 10	1 to 5		
O=C(O)c1ccc(C2CC2)cc1NS(=O)(=O)c1cc(Cl)cc(C(F)(F)F)c1 [I-344, 2-((3-chloro-5-(trifluoromethyl)phenyl)sulfonamido)-4-cyclopropylbenzoic acid]								500 to 20000	500 to 30000	1 to 10	1 to 5		
CCOc1c(Cl)cc(Cl)cc1S(=O)(=O)Nc1cc(-c2ccccc2)ccc1C(=O)O [I-348, 3-((3,5-dichloro-2-ethoxyphenyl)sulfonamido)-[1,1′-biphenyl]-4-carboxylic Acid]								50 to 500	50 to 500	1 to 10	1 to 5		
O=C(Nc1cc(-c2ccccc2)ccc1C(=O)O)c1cc(Cl)cc(C(F)(F)F)c1 [I-349, 3-(3-chloro-5-(trifluoromethyl)benzamido)-[1,1′-biphenyl]-4-carboxylic Acid]								500 to 20000	500 to 30000	1 to 10	1 to 5		
O=C(O)c1c(NS(=O)(=O)c2cc(Cl)cc(Cl)c2)sc2ccccc12 [I-361, 2-((3,5-dichlorophenyl)sulfonamido)benzo[b]thiophene-3-carboxylic acid]								500 to 20000	500 to 30000	> 10	1 to 5		
Cc1cc(C(=O)O)c(NS(=O)(=O)c2cc(Cl)cc(C(F)(F)F)c2)cc1-c1ccccc1 [I-364, 5-((3-chloro-5-(trifluoromethyl)phenyl)sulfonamido)-2-methyl-[1,1′-biphenyl]-4-carboxylic Acid]								500 to 20000	500 to 30000	1 to 10	1 to 5		
O=C(O)c1ccc(-c2ccccc2)cc1NS(=O)(=O)c1cccc(-n2cnnn2)c1 [I-372]								500 to 20000	500 to 30000	> 10	1 to 5		
